Reference: PubChem BioAssay (NCI)
Values joined by “and” are separate entries in the source; they are usually repeats but may differ in a detail not shown here. Identical values can stand only once.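 48-hour exposure; five concentrations; linearly interpolated endpoints. GI50 = concentration required for 50% inhibition of growth. TGI marks complete inhibition of growth.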

Assays:
Assay in all cases: NCI tumour cell line growth inhibition, 48 h
HL-60(TB) leukemia = test system: HL-60(TB) leukemia
MOLT-4 leukemia = test system: MOLT-4 leukemia
DU-145 prostate = test system: DU-145 prostate
SNB-75 CNS = test system: SNB-75 CNS
CCRF-CEM leukemia = test system: CCRF-CEM leukemia
NCI/ADR-RES ovarian = test system: NCI/ADR-RES ovarian
SK-OV-3 ovarian = test system: SK-OV-3 ovarian
SW-620 colon = test system: SW-620 colon
SF-268 CNS = test system: SF-268 CNS
HCT-15 colon = test system: HCT-15 colon

| SMILES | GI50 (HL-60(TB) leukemia) | TGI (HL-60(TB) leukemia) | GI50 (MOLT-4 leukemia) [µM] | TGI (MOLT-4 leukemia) | GI50 (DU-145 prostate) | TGI (DU-145 prostate) | GI50 (SNB-75 CNS) | TGI (SNB-75 CNS) | GI50 (CCRF-CEM leukemia) [µM] | TGI (CCRF-CEM leukemia) | GI50 (NCI/ADR-RES ovarian) [µM] | TGI (NCI/ADR-RES ovarian) | GI50 (SK-OV-3 ovarian) | TGI (SK-OV-3 ovarian) | GI50 (SW-620 colon) [µM] | TGI (SW-620 colon) | GI50 (SF-268 CNS) | TGI (SF-268 CNS) | GI50 (HCT-15 colon) | TGI (HCT-15 colon) |
| --- | --- | --- | --- | --- | --- | --- | --- | --- | --- | --- | --- | --- | --- | --- | --- | --- | --- | --- | --- | --- |
| C#CCOc1cccc(Nc2ncnc3c(NC(=O)C=C)cccc23)c1 | 18.9 µM | > 100 µM | 19.4 | > 100 µM | 18.1 µM | > 100 µM | 17.6 µM | > 100 µM | 16.5 | > 100 µM | 19.8 | 98.1 µM | 38.2 µM | > 100 µM | 25.8 | > 100 µM | 27.7 µM | > 100 µM | 12.6 µM | 81.8 µM |
| Nc1cc(Br)c(-c2nnc(CCC(=O)c3nc4ccccc4[nH]3)o2)c(Br)c1 | 3.44 µM | > 100 µM | 4.94 | > 100 µM | 5.4 µM | 53.5 µM | 2.96 µM | 20.5 µM | 3.81 | > 100 µM | 22.6 | > 100 µM | 22.3 µM | 80.5 µM | 3.28 | > 100 µM | 5.14 µM | 81.5 µM | > 100 µM | > 100 µM |
| CC(C)[C@H](O)C(=O)N[C@@H](C)C(=O)N[C@@H]1C(=O)N(C)CCc2ccccc21 | > 100 µM | > 100 µM | > 100 | > 100 µM | > 100 µM | > 100 µM | > 100 µM | > 100 µM | > 100 | > 100 µM | > 100 | > 100 µM | > 100 µM | > 100 µM | > 100 | > 100 µM | > 100 µM | > 100 µM | > 100 µM | > 100 µM |
| CN(C)C(=S)SSC(=S)N(C)C |  | 70.6 µM and 9.41 µM and 10.8 µM |  | 75.1 µM and 37.5 µM and 23.8 µM | 20.6 µM | 52.4 µM and > 100 µM | 15.2 µM | 38.5 µM and > 100 µM |  | 37.2 µM and 5.68 µM |  | 30.4 µM and 36 µM | 37.1 µM and > 100 µM and 31.9 µM | > 100 µM |  | 22.8 µM and 22.1 µM and > 56.6 µM | 15 µM and 42.7 µM and 16.1 µM | 29 µM and > 100 µM and 32.8 µM | 13.4 µM and 47.9 µM and 13.5 µM | 29.4 µM and > 100 µM and 31 µM |
| CC(C)CC(C/C=C1/CC(CO)(COC(=O)C(C)(C)C)OC1=O)CC(C)C (stereo not given) | 0.154 µM and 0.46 µM | 16.9 µM and 16.7 µM |  | 23.6 µM and > 41.6 µM | 20.2 µM | 49.2 µM and 11.5 µM |  | 23.6 µM and 26.6 µM |  | 18.4 µM |  | 35.3 µM and 29.7 µM |  | 39.7 µM |  | 19.4 µM and 22 µM |  | 26.4 µM and 25.4 µM |  | 29.1 µM and 28.7 µM |
| NNCCc1ccc(NC(=O)CCCc2ccc(C(=O)Nc3ccccc3N)cc2)cc1 | 3.34 µM | 25 µM | 3.22 | 26.8 µM | 14.5 µM | > 100 µM | 32.8 µM | > 100 µM | 3.35 | > 100 µM | 21.6 | > 100 µM | 18.2 µM | > 100 µM | 5.77 | > 100 µM | 5.97 µM | > 100 µM | 45.6 µM | > 100 µM |
| OC(c1cc(-c2ccc(C(F)(F)F)cc2)nc(C(F)(F)F)c1)C1CCCCN1 (stereo not given) | 1.43 µM | 3.67 µM and 4.11 µM | 1.32 | 3.16 µM and 4.34 µM | 1.76 µM and 2.66 µM | 3.14 µM and 7.06 µM | 1.37 µM and 3.96 µM | 2.69 µM and 10.6 µM | 1.62 | 3.53 µM and 4.81 µM | 1.65 | 3.1 µM and 5.99 µM |  | 4.75 µM and 5.99 µM |  | 3.33 µM and 3.36 µM | 1.85 µM and 3.76 µM | 3.46 µM and 13.1 µM | 1.7 µM | 3.12 µM and 4.7 µM |
| CCCCCCCCCCNC(=O)CI | 1.32 µM | 3.12 µM | 0.298 | 1.07 µM | 1.95 µM | 3.72 µM | 1.64 µM | 3.09 µM | 0.194 | 0.482 µM | 2.32 | 5.56 µM | 1.89 µM | 3.38 µM | 1.77 | 3.65 µM | 1.86 µM | 3.65 µM | 1.5 µM | 3.31 µM |
| CCCc1cc(=O)n2c(C(=O)Nc3ccc(Cl)cc3C)c(C(=O)Nc3ccc(F)cc3)sc2n1 | 1.33 µM | 23.8 µM | 3.99 | 22.2 µM | 9.37 µM | 33.3 µM | 3.71 µM | 11.5 µM | 16.4 | 103 µM | 10.6 | 59.7 µM | 12.7 µM | 52.8 µM | 6.45 | 61.4 µM | 6.62 µM | 24.9 µM | 9.4 µM | > 150 µM |
| COc1ccc(-c2nc(-c3cc(OC)cc(OC)c3)[nH]c2-c2ccc(OC)cc2)cc1 | 3.74 µM | > 100 µM | 2.8 | 8.15 µM | 65.5 µM | > 100 µM | > 100 µM | > 100 µM | 3.93 | > 100 µM | 9.76 | > 100 µM | > 100 µM | > 100 µM | 54.1 | > 100 µM | > 100 µM | > 100 µM | 5.04 µM | > 100 µM |
| O=C1CCCN1c1ccccc1I(=O)=O | > 100 µM | > 100 µM | > 100 | > 100 µM | > 100 µM | > 100 µM | > 100 µM | > 100 µM | > 100 | > 100 µM | > 100 | > 100 µM | > 100 µM | > 100 µM | > 100 | > 100 µM | > 100 µM | > 100 µM | > 100 µM | > 100 µM |
| O=C(/C=C/c1ccccc1)c1ccccc1 |  | > 10 µM |  | > 3.16 µM |  | > 10 µM |  | > 10 µM |  | > 7.45 µM |  | > 10 µM |  | > 10 µM |  | > 10 µM |  | > 10 µM |  | > 10 µM |
| Cn1c(=O)c2c(nc(C(=N)SCC(=O)O)n2C)n(C)c1=O |  | 52.8 µM |  | 50.9 µM |  | > 100 µM |  | > 100 µM |  | 35.8 µM |  | > 100 µM |  | > 100 µM |  | > 100 µM |  | > 100 µM |  | > 100 µM |
| COc1ccc(-c2nccn2-c2ccc(OC)cc2)cc1 | 14.2 µM | 34.2 µM | 27.4 | 89.4 µM | 33.3 µM | > 93.8 µM | 5.06 µM | 30.3 µM | 23.5 | 76.7 µM | 20.5 | 49.4 µM | 22.8 µM | 93.6 µM | 25 | > 100 µM | 22.9 µM | 74.4 µM | 23.1 µM | > 67.2 µM |
